Test results taken from US10689381B2 (priority 2017, dated 2020).
≈ marks a conversion by molar mass, not a printed value. Read-outs that look alike come from different tables or passages of the source.

Assays:
L1210 [1] = assay: cells; format: cell-based, mouse
Procedure, shortened: (§1)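 Cells seeded at 30,000 cells/mL in DMEM with 10% FBS, then exposed for 72 h to compound at six concentrations spanning 0–1000 nM or 0–10000 nM, in duplicate. Final incubation at 37 °C lasted 5 min for L1210 and 15 min for HCT116.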

L1210 [2] = conditions: Table 1, footnote b: Reported in ref. 41; cited from earlier work
A549 = assay: cells; format: cell-based, human; conditions: read-out: IC50 A549
From the text: (§2) 2001, 98:11737; Kavallaris et al., Brit. J. Cancer. 1999, 80:1020; and Kavallaris et al., J. Clin. Invest. 1997, 100:1282]. As a result, the comparison of cell growth inhibition of candidate drugs against A549 vs A549-T24 has been used to characterize potential resistance due to increased expression of class III β-tubulin [Goncalves et al., Proc. Natl. Acad. Sci. USA. 2001, 98:11737; Kavallaris et al., Brit. J. Cancer. 1999, 80:1020; and Kavallaris et al., J. Clin. Invest. 1997, 100:1282].

A549-T24 = assay: cells; format: cell-based, human
From the text: as §2

HCT116/VM46 = assay: cells; format: cell-based, human
Method: Compounds were tested for their cell growth inhibition of L1210 (ATCC no. CCL-219, mouse lymphocytic leukemia), HCT116 (ATCC no. CCL-247, human colorectal carcinoma), and HCT116/VM46 (a vinblastine-resistant strain of HCT116) cells in culture. A population of cells (>1×10^6 cells/mL as determined with a hemocytometer) was diluted with Dulbecco's Modified Eagle Medium (DMEM, Gibco) containing 10% fetal bovine serum (FBS, Gibco) to give a final concentration of 30,000 cells/mL. To each well of a 96-well plate (Corning® Costar®) was added 100 μL of the cell media solution with a multichannel pipet. The cultures were incubated at 37° C. in an atmosphere of 5% CO2 and 95% humidified air for 24 hours.
The test compounds were then added to the plate as follows: test compounds were diluted in DMSO to a concentration of 1 mM. 10-Fold serial dilutions in DMSO were next performed on a separate 96-well plate. Fresh culture media (100 μL) was added to each well of cells resulting in 200 μL of medium per well followed by 2 μL of each test agent. Compounds were tested in duplicate (n=2-8 times) at six concentrations between 0-1000 nM or 0-10000 nM. Following the addition of compound, cultures were incubated for an additional 72 hours.
The plates were incubated at 37° C. for 5 minutes (L1210) or 15 min (HCT116 and HCT116/VM46). After the given incubation time, 50 μL of 0.1 N NaOH was added to each well and the absorption at 405 nm was determined using a 96 well plate reader. […]

HCT116 [3] = assay: cells; format: cell-based, human; conditions: for potency relative to vinblastine (less potent / reduced activity): vinblastine-sensitive cell lines
Procedure, shortened: as §1

HCT116 [4] = conditions: cited from earlier work; for IC50: Table 1, footnote b: Reported in ref. 41
Tubulin = conditions: for % displacement: Table 9, displacement of tubulin bound BODIPY-vinblastine
Method: Control studies were performed with BODIPY-VBL in the absence of a competitive ligand (control 1, maximum FI enhancement) and in the absence of tubulin (control 2, no FI enhancement). Percent (%) BODIPY-VBL displacement was calculated by the formula: (control 1 FI−experiment FI)/(Control 1 FI−Control 2 FI)×100%. Reported values are the average of 5 measurements±SD.

cells = format: cell-based, human; conditions: range over L1210 and HCT116, stated in text; read-out: IC50 against vinblastine-sensitive cell lines
Procedure, shortened: as §1

Pgp = Pgp (Homo sapiens, UniProt P08183); assay: Drug-stimulated Pgp ATPase activity in membranes (MDR1 PREDEASY ATPase kit)
Sequence of Pgp (P08183 whole entry): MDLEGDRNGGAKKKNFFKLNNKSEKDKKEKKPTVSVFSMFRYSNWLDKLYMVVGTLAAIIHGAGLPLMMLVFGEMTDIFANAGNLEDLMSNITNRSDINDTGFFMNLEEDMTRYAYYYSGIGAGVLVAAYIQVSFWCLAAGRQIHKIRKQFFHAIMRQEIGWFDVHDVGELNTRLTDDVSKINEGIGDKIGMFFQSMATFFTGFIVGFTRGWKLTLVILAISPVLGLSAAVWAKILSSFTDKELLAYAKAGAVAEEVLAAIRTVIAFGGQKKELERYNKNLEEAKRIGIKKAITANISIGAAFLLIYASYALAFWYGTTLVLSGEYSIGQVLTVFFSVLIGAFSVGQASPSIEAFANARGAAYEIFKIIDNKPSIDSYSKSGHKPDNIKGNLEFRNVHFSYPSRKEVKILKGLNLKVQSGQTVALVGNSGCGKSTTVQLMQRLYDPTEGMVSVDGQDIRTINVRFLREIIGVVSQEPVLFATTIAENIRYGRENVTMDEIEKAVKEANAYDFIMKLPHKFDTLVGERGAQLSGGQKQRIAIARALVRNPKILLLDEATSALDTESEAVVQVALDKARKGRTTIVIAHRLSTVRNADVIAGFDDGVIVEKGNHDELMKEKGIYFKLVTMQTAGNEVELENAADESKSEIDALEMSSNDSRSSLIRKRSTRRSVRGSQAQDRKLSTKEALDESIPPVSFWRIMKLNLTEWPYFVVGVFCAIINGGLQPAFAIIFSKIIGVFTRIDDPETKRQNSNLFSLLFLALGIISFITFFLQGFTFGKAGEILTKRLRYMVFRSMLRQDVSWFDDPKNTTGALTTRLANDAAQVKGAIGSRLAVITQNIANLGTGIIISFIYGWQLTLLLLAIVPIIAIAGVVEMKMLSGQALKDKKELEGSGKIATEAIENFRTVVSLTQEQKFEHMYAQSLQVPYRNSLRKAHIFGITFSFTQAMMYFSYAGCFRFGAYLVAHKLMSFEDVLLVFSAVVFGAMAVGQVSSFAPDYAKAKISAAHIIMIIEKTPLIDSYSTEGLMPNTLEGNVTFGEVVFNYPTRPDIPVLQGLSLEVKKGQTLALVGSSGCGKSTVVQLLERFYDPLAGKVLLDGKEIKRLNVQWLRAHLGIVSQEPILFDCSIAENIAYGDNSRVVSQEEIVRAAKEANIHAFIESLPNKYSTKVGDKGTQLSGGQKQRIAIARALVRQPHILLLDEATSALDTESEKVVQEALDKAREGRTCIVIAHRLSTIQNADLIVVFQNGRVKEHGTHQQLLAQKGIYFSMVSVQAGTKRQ

[5] = Table 2, read-out: IC50 HCT116/VM46
[6] = Table 10, read-out: IC50 (nM), HCT116/VM46
[7] = Table 9, read-out: IC50 (nM, HCT116)
[8] = Table 10, read-out: IC50 (nM), HCT116
[9] = Table 6, read-out: IC50 HCT116/VM46

**Q.** Which results are given for `CCC1(NC=O)CC2CN(CCc3c([nH]c4ccccc34)C(C(=O)OC)(c3cc4c(cc3OC)N(C)C3C(O)(C(=O)OC)C(OC(C)=O)C5(CC)C=CCN6CCC43C65)C2)C1` (stereo not shown) [Compound 9]?
**A.** IC50 (L1210 [1]): 0.5 nM; IC50 (L1210 [2]): 65 nM; IC50 (A549): 0.7 nM; IC50 (A549-T24): 0.7 nM; differential in activity between sensitive and resistant HCT116 cell lines (HCT116/VM46; HCT116/VM46 vs HCT116): ~80 fold; IC50 (HCT116/VM46; read-out: IC50 HCT116/VM46): 7.5 nM; activity relative to free amine Compound 6 (more active) (HCT116 [3]): 10 fold; IC50 (HCT116 [3]; read-out: IC50 HCT116): 0.6 nM; potency relative to vinblastine (less potent / reduced activity) (HCT116 [3]): approximately 10 fold; IC50 (HCT116 [4]): 85 nM

**Q.** Which IC50 (L1210 [2]) does the source give for `CC[C@]1(NC(C)=O)C[C@H]2CN(CCc3c([nH]c4ccccc34)[C@@](C(=O)OC)(c3cc4c(cc3OC)N(C)[C@H]3[C@@](O)(C(=O)OC)[C@H](OC(C)=O)[C@]5(CC)C=CCN6CC[C@]43[C@@H]65)C2)C1` [Compound 10, 20′-Acetamidovinblastine] here?
**A.** 65 nM

**Q.** And the “differential in activity between sensitive and resistant HCT116 cell lines” value (HCT116/VM46; HCT116/VM46 vs HCT116)?
**A.** ~80 fold

**Q.** What about the “activity relative to free amine Compound 6 (more active)” value (HCT116 [3]) of the same compound?
**A.** 10 fold

**Q.** What about the “potency relative to vinblastine (less potent / reduced activity)” value (HCT116 [3]) of the same compound?
**A.** approximately 10 fold

**Q.** And the IC50 (HCT116 [4])?
**A.** 90 nM

**Q.** Which results are given for `CC[C@]1(NC(=O)C(F)(F)F)C[C@H]2CN(CCc3c([nH]c4ccccc34)[C@@](C(=O)OC)(c3cc4c(cc3OC)N(C)[C@H]3[C@@](O)(C(=O)OC)[C@H](OC(C)=O)[C@]5(CC)C=CCN6CC[C@]43[C@@H]65)C2)C1` [Compound 11]?
**A.** IC50 (L1210 [2]): 660 nM; IC50 (HCT116 [4]): 690 nM

**Q.** What does the source list for `CC[C@]1(NC(=O)c2ccc(C)c(C)c2)C[C@H]2CN(CCc3c([nH]c4ccccc34)[C@@](C(=O)OC)(c3cc4c(cc3OC)N(C)[C@H]3[C@@](O)(C(=O)OC)[C@H](OC(C)=O)[C@]5(CC)C=CCN6CC[C@]43[C@@H]65)C2)C1` [Compound 28]?
**A.** IC50 (L1210 [1]): 3 nM; IC50 (L1210 [1]; Table 2): 3 nM; % displacement (Tubulin): 67 ± 8%; IC50 (A549): 5 nM; IC50 (A549-T24): 2.5 nM; IC50 (HCT116/VM46; [5]): 7.6 nM; IC50 (HCT116/VM46; [6]): 7.6 nM; IC50 (HCT116/VM46; read-out: IC50 HCT116/VM46): 7.6 nM; IC50 (HCT116 [3]; Table 2, read-out: IC50 HCT116): 4.5 nM; IC50 (HCT116 [3]; [7]): 4.5 nM; IC50 (HCT116 [3]; [8]): 4.5 nM; IC50 (HCT116 [3]; read-out: IC50 HCT116): 4.5 nM

**Q.** With `CCC1(NC(=O)c2ccc3c(c2)CCCO3)CC2CN(CCc3c([nH]c4ccccc34)C(C(=O)OC)(c3cc4c(cc3OC)N(C)C3C(O)(C(=O)OC)C(OC(C)=O)C5(CC)C=CCN6CCC43C65)C2)C1` (stereo not shown) [Compound 173] as the compound, how does the IC50 (L1210 [1]) read?
**A.** 0.4 nM

**Q.** What about the IC50 (L1210 [1]; Table 6) of the same compound?
**A.** 0.4 nM

**Q.** What about the “% displacement” value (Tubulin) of the same compound?
**A.** 98 ± 7%

**Q.** What about the IC50 (A549) of the same compound?
**A.** 1.4 nM

**Q.** And the IC50 (A549-T24)?
**A.** 0.8 nM

**Q.** And the “differential in activity between sensitive and resistant HCT116 cell lines” value (HCT116/VM46; HCT116/VM46 vs HCT116)?
**A.** 3.8 fold

**Q.** And the IC50 (HCT116/VM46; [9])?
**A.** 1.8 nM

**Q.** And the IC50 (HCT116/VM46; [6])?
**A.** 1.8 nM

**Q.** What about the IC50 (HCT116/VM46; read-out: IC50 HCT116/VM46) of the same compound?
**A.** 1.8 nM

**Q.** What about the IC50 (HCT116/VM46; read-out: IC50 against resistant HCT116 cell line) of the same compound?
**A.** 1.8 nM

**Q.** And the IC50 (HCT116 [3]; Table 6, read-out: IC50 HCT116)?
**A.** 0.5 nM

**Q.** And the IC50 (HCT116 [3]; [7])?
**A.** 0.5 nM

**Q.** What about the IC50 (HCT116 [3]; [8]) of the same compound?
**A.** 0.5 nM

**Q.** What about the IC50 (HCT116 [3]; read-out: IC50 HCT116) of the same compound?
**A.** 0.5 nM

**Q.** And the IC50 (cells)?
**A.** 0.4 to 0.5 nM

**Q.** What does the source list for `CCC1(O)C[C@H]2CN(CCc3c([nH]c4ccc(F)cc34)[C@@](C(=O)OC)(c3cc4c(cc3OC)N(C)C3C(O)(C(=O)OC)[C@H](OC(C)=O)[C@]5(CC)C=CCN6CC[C@]43[C@@H]65)C2)C1` (stereo partly shown) [Compound 187, 10′-fluorovinblastine, reference compound]?
**A.** IC50 (L1210 [1]; Mus musculus, L1210, Table 8, 10′-F compounds): 0.6 nM; IC50 (L1210 [1]; Mus musculus, L1210, table b183): 0.7 nM; IC50 (A549; Homo sapiens, A549): 2.9 nM; IC50 (A549-T24; Homo sapiens): < 8 nM; IC50 (HCT116 [3]; Homo sapiens, HCT-116, Table 8, 10′-F compounds, read-out: IC50 HCT116): 0.7 nM; IC50 (HCT116 [3]; Homo sapiens, HCT-116, table b183, read-out: IC50 HCT116): 0.8 nM; improvement in activity over vinblastine (HCT116 [4]; recent work, Gotoh et al. 2011): ~10 fold

**Q.** With `CC[C@]1(NC(=O)c2ccc(OC)c(OC)c2)C[C@H]2CN(CCc3c([nH]c4ccc(F)cc34)[C@@](C(=O)OC)(c3cc4c(cc3OC)N(C)[C@H]3[C@@](O)(C(=O)OC)[C@H](OC(C)=O)[C@]5(CC)C=CCN6CC[C@]43[C@@H]65)C2)C1` [Compound 190] as the compound, how does the IC50 (L1210 [1]; Table 8, 10′-F compounds) read?
**A.** 0.06 nM

**Q.** And the IC50 (HCT116 [3]; Table 8, 10′-F compounds, read-out: IC50 HCT116)?
**A.** 0.08 nM

**Q.** And the IC50 (cells)?
**A.** 0.06 to 0.08 nM

**Q.** What does the source list for `CC[C@]1(O)C[C@@H]2CN(CCc3c([nH]c4ccccc34)[C@@](C(=O)OC)(c3cc4c(cc3OC)N(C)[C@H]3[C@@](O)(C(=O)OC)[C@H](OC(C)=O)[C@]5(CC)C=CCN6CC[C@]43[C@@H]65)C2)C1` [Vinblastine (1), Vinblastine, reference compound]?
**A.** IC50 (L1210 [1]): 6 nM; IC50 (L1210 [1]; Table 1): 6 nM; IC50 (L1210 [1]; Table 2): 6 nM; IC50 (L1210 [1]; Table 3): 6 nM; IC50 (L1210 [1]; Table 4): 6 nM; IC50 (L1210 [1]; Table 5): 6 nM; IC50 (L1210 [1]; Table 6): 6 nM; IC50 (L1210 [1]; Table 7, C20′ sulfonamides): 6 nM; IC50 (L1210 [1]; Table 8, 10′-F compounds): 6 nM; percent (%) displacement of tubulin-bound BODIPY-vinblastine (Tubulin; FIG. 2, competitive ligand 18 μM): 50%; % displacement (Tubulin): 61 ± 13%; IC50 (A549): 7.7 nM; IC50 (A549-T24): 6.7 nM; MIC, HCT116/VM46 cells (HCT116/VM46): 0.6 µM (≈ 0.487 µg/mL); differential in activity between sensitive and resistant HCT116 cell lines (HCT116/VM46): 88 fold; IC50 (HCT116/VM46; Table 1, read-out: IC50 HCT116/VM46): 600 nM; IC50 (HCT116/VM46; [5]): 600 nM; IC50 (HCT116/VM46; Table 3, read-out: IC50 HCT116/VM46): 600 nM; IC50 (HCT116/VM46; Table 4, read-out: IC50 HCT116/VM46): 600 nM; IC50 (HCT116/VM46; Table 5, read-out: IC50 HCT116/VM46): 600 nM; IC50 (HCT116/VM46; [9]): 600 nM; IC50 (HCT116/VM46; Table 7, C20′ sulfonamides, read-out: IC50 HCT116/VM46): 600 nM; IC50 (HCT116/VM46; Table 8, 10′-F compounds, read-out: IC50 HCT116/VM46): 600 nM; IC50 (HCT116/VM46; [6]): 600 nM; IC50 (HCT116/VM46; read-out: IC50 HCT116/VM46): 600 nM; IC50 (HCT116/VM46; table in Background, C20′ substituent X, read-out: IC50, HCT116/VM46): 600 nM; % Pgp ATPase activity (Pgp): 87%; Papp, B to A (Caco-2 cells): 38.2 ± 2.0 x 10^−6 cm/s
